The nature of this test: Inhibitory activity against binding of horseradish peroxidase labelled Maclura pomifera, isolated from the seeds of osage orange tree to poly (acrylamide-co-allyl alpha-Galactopyranoside.

The record followed here is ChEMBL document CHEMBL1130982, “Diversity of C-linked neoglycopeptides for the exploration of subsite-assisted carbohydrate binding interactions” (Bioorg Med Chem Lett, 1998).

As usually defined, the IC50 is the concentration that inhibits the measured activity by half. Higher therefore signals lower potency.

The structures appear in SMILES notation.

Compound `CCN(CC)C(=O)CNC(=O)[C@H](CCCCNC(=O)CN(CCC1OC(CO)C(O)C(O)C1O)C(=O)CC1OC(CO)C(O)C(O)C1O)NC(C)=O` (stereo partly specified) registered an IC50 of 4310 µM. In other words, the millimolar range.

With `CC(=O)N[C@@H](CCCCNC(=O)CC1OC(CO)C(O)C(O)C1O)C(=O)NCC(N)=O` (stereo partly specified), the IC50 was 4180 µM. As to `CCN(CC)C(=O)CC1OC(CO)C(O)C(O)C1O` (stereo unspecified), the IC50 came out at 2570 µM. On to `CC(=O)N[C@@H](CCCCN(CCC1OC(CO)C(O)C(O)C1O)CCC1OC(CO)C(O)C(O)C1O)C(=O)NCC(N)=O` (stereo partly specified), for which the IC50 was 1480 µM. Against the preceding compound, the IC50 is about 1.7-fold lower. As for `CC(=O)N[C@@H](CCCCNC(=O)c1cc(NC(=O)CNC(=O)[C@H](C)NC(=O)C[C@H]2O[C@H](CO)[C@H](O)[C@H](O)[C@H]2O)cc(NC(=O)CNC(=O)[C@@H](C)NC(=O)C[C@H]2O[C@H](CO)[C@H](O)[C@H](O)[C@H]2O)c1)C(=O)NCC(=O)NCc1ccccc1`, the IC50 worked out at 2840 µM. In the case of `CC(=O)N[C@@H](CCCCNC(=O)c1cc(NC(=O)CNC(=O)[C@H]2CCCN2C(=O)C[C@@H]2O[C@@H](CO)[C@H](O)[C@H](O)[C@@H]2O)cc(NC(=O)CNC(=O)[C@@H]2CCCN2C(=O)C[C@H]2O[C@@H](CO)[C@H](O)[C@H](O)[C@@H]2O)c1)C(=O)NCC(=O)NCc1ccccc1`, the IC50 amounted to 1500 µM.
